# Measurements taken from PubChem BioAssay (NCI).
#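 Interpolation was linear, between the two tested concentrations surrounding the appropriate level; five concentrations were tested over 48 hours in 96-well plates. GI50 = concentration required for 50% inhibition of growth. The concentration for full growth arrest is given as TGI.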
# Columns and labels:
# Assay in all cases: NCI-60 cell line screen, 48 h
# 786-0 renal = test system: 786-0 renal
# A498 renal = test system: A498 renal
# A549 NSCLC = test system: A549 NSCLC
# ACHN renal = test system: ACHN renal
# BT-549 breast = test system: BT-549 breast
# CAKI-1 renal = test system: CAKI-1 renal
# CCRF-CEM leukemia = test system: CCRF-CEM leukemia
# COLO 205 colon = test system: COLO 205 colon
# DU-145 prostate = test system: DU-145 prostate
# EKVX NSCLC = test system: EKVX NSCLC
# HCT-116 colon = test system: HCT-116 colon
# HCT-15 colon = test system: HCT-15 colon
# HL-60(TB) leukemia = test system: HL-60(TB) leukemia
# HOP-62 NSCLC = test system: HOP-62 NSCLC
# HOP-92 NSCLC = test system: HOP-92 NSCLC
# HS 578T breast = test system: HS 578T breast
# HT29 colon = test system: HT29 colon
# IGROV1 ovarian = test system: IGROV1 ovarian
# K-562 leukemia = test system: K-562 leukemia
# KM12 colon = test system: KM12 colon
# LOX IMVI melanoma = test system: LOX IMVI melanoma
# M14 melanoma = test system: M14 melanoma
# MALME-3M melanoma = test system: MALME-3M melanoma
# MCF7 breast = test system: MCF7 breast
# MDA-MB-231 breast = test system: MDA-MB-231 breast
# MDA-MB-435 = test system: MDA-MB-435
# MOLT-4 leukemia = test system: MOLT-4 leukemia
# NCI-H226 lung = test system: NCI-H226 lung
# NCI-H460 lung = test system: NCI-H460 lung
# NCI-H522 lung = test system: NCI-H522 lung
# NCI/ADR-RES ovarian = test system: NCI/ADR-RES ovarian
# OVCAR-3 ovarian = test system: OVCAR-3 ovarian
# OVCAR-4 ovarian = test system: OVCAR-4 ovarian
# OVCAR-5 ovarian = test system: OVCAR-5 ovarian
# OVCAR-8 ovarian = test system: OVCAR-8 ovarian
# PC-3 prostate = test system: PC-3 prostate
# RPMI-8226 leukemia = test system: RPMI-8226 leukemia
# RXF 393 renal = test system: RXF 393 renal
# SF-268 CNS = test system: SF-268 CNS
# SF-295 CNS = test system: SF-295 CNS
# SF-539 CNS = test system: SF-539 CNS
# SK-MEL-2 melanoma = test system: SK-MEL-2 melanoma
# SK-MEL-28 melanoma = test system: SK-MEL-28 melanoma
# SK-MEL-5 melanoma = test system: SK-MEL-5 melanoma
# SK-OV-3 ovarian = test system: SK-OV-3 ovarian
# SN12C renal = test system: SN12C renal
# SNB-19 CNS = test system: SNB-19 CNS
# SNB-75 CNS = test system: SNB-75 CNS
# SR leukemia = test system: SR leukemia
# SW-620 colon = test system: SW-620 colon
# T-47D breast = test system: T-47D breast
# TK-10 renal = test system: TK-10 renal
# U251 CNS = test system: U251 CNS
# UACC-257 melanoma = test system: UACC-257 melanoma
# UACC-62 melanoma = test system: UACC-62 melanoma
# UO-31 renal = test system: UO-31 renal
# HCC-2998 colon = test system: HCC-2998 colon
# NCI-H23 lung = test system: NCI-H23 lung
smiles,measurement,setting,value
CC(C)(C)c1cc(-c2nc3c(F)c(F)c(F)c(F)c3[nH]2)cc(C(C)(C)C)c1O,GI50,786-0 renal,> 100 µM
same,TGI,786-0 renal,> 100 µM
same,GI50,A498 renal,> 100 µM
same,TGI,A498 renal,> 100 µM
same,GI50,A549 NSCLC,> 100 µM
same,TGI,A549 NSCLC,> 100 µM
same,GI50,ACHN renal,> 100 µM
same,TGI,ACHN renal,> 100 µM
same,GI50,BT-549 breast,> 100 µM
same,TGI,BT-549 breast,> 100 µM
same,GI50,CAKI-1 renal,> 100 µM
same,TGI,CAKI-1 renal,> 100 µM
same,GI50,CCRF-CEM leukemia,> 100 µM
same,TGI,CCRF-CEM leukemia,> 100 µM
same,GI50,COLO 205 colon,> 100 µM
same,TGI,COLO 205 colon,> 100 µM
same,GI50,DU-145 prostate,> 100 µM
same,TGI,DU-145 prostate,> 100 µM
same,GI50,EKVX NSCLC,> 100 µM
same,TGI,EKVX NSCLC,> 100 µM
same,GI50,HCT-116 colon,> 100 µM
same,TGI,HCT-116 colon,> 100 µM
same,GI50,HCT-15 colon,> 100 µM
same,TGI,HCT-15 colon,> 100 µM
same,GI50,HL-60(TB) leukemia,> 100 µM
same,TGI,HL-60(TB) leukemia,> 100 µM
same,GI50,HOP-62 NSCLC,> 100 µM
same,TGI,HOP-62 NSCLC,> 100 µM
same,GI50,HOP-92 NSCLC,> 100 µM
same,TGI,HOP-92 NSCLC,> 100 µM
same,GI50,HS 578T breast,> 100 µM
same,TGI,HS 578T breast,> 100 µM
same,GI50,HT29 colon,> 100 µM
same,TGI,HT29 colon,> 100 µM
same,GI50,IGROV1 ovarian,> 100 µM
same,TGI,IGROV1 ovarian,> 100 µM
same,GI50,K-562 leukemia,> 100 µM
same,TGI,K-562 leukemia,> 100 µM
same,GI50,KM12 colon,> 100 µM
same,TGI,KM12 colon,> 100 µM
same,GI50,LOX IMVI melanoma,> 100 µM
same,TGI,LOX IMVI melanoma,> 100 µM
same,GI50,M14 melanoma,> 100 µM
same,TGI,M14 melanoma,> 100 µM
same,GI50,MALME-3M melanoma,> 100 µM
same,TGI,MALME-3M melanoma,> 100 µM
same,GI50,MCF7 breast,> 100 µM
same,TGI,MCF7 breast,> 100 µM
same,GI50,MDA-MB-231 breast,> 100 µM
same,TGI,MDA-MB-231 breast,> 100 µM
same,GI50,MDA-MB-435,> 100 µM
same,TGI,MDA-MB-435,> 100 µM
same,GI50,MOLT-4 leukemia,> 100 µM
same,TGI,MOLT-4 leukemia,> 100 µM
same,GI50,NCI-H226 lung,> 100 µM
same,TGI,NCI-H226 lung,> 100 µM
same,GI50,NCI-H460 lung,> 100 µM
same,TGI,NCI-H460 lung,> 100 µM
same,GI50,NCI-H522 lung,> 100 µM
same,TGI,NCI-H522 lung,> 100 µM
same,GI50,NCI/ADR-RES ovarian,> 100 µM
same,TGI,NCI/ADR-RES ovarian,> 100 µM
same,GI50,OVCAR-3 ovarian,> 100 µM
same,TGI,OVCAR-3 ovarian,> 100 µM
same,GI50,OVCAR-4 ovarian,> 100 µM
same,TGI,OVCAR-4 ovarian,> 100 µM
same,GI50,OVCAR-5 ovarian,> 100 µM
same,TGI,OVCAR-5 ovarian,> 100 µM
same,GI50,OVCAR-8 ovarian,> 100 µM
same,TGI,OVCAR-8 ovarian,> 100 µM
same,GI50,PC-3 prostate,> 100 µM
same,TGI,PC-3 prostate,> 100 µM
same,GI50,RPMI-8226 leukemia,> 100 µM
same,TGI,RPMI-8226 leukemia,> 100 µM
same,GI50,RXF 393 renal,> 100 µM
same,TGI,RXF 393 renal,> 100 µM
same,GI50,SF-268 CNS,> 100 µM
same,TGI,SF-268 CNS,> 100 µM
same,GI50,SF-295 CNS,> 100 µM
same,TGI,SF-295 CNS,> 100 µM
same,GI50,SF-539 CNS,> 100 µM
same,TGI,SF-539 CNS,> 100 µM
same,GI50,SK-MEL-2 melanoma,> 100 µM
same,TGI,SK-MEL-2 melanoma,> 100 µM
same,GI50,SK-MEL-28 melanoma,> 100 µM
same,TGI,SK-MEL-28 melanoma,> 100 µM
same,GI50,SK-MEL-5 melanoma,> 100 µM
same,TGI,SK-MEL-5 melanoma,> 100 µM
same,GI50,SK-OV-3 ovarian,> 100 µM
same,TGI,SK-OV-3 ovarian,> 100 µM
same,GI50,SN12C renal,> 100 µM
same,TGI,SN12C renal,> 100 µM
same,GI50,SNB-19 CNS,> 100 µM
same,TGI,SNB-19 CNS,> 100 µM
same,GI50,SNB-75 CNS,> 100 µM
same,TGI,SNB-75 CNS,> 100 µM
same,GI50,SR leukemia,38 µM
same,TGI,SR leukemia,> 100 µM
same,GI50,SW-620 colon,> 100 µM
same,TGI,SW-620 colon,> 100 µM
same,GI50,T-47D breast,> 100 µM
same,TGI,T-47D breast,> 100 µM
same,GI50,TK-10 renal,> 100 µM
same,TGI,TK-10 renal,> 100 µM
same,GI50,U251 CNS,> 100 µM
same,TGI,U251 CNS,> 100 µM
same,GI50,UACC-257 melanoma,> 100 µM
same,TGI,UACC-257 melanoma,> 100 µM
same,GI50,UACC-62 melanoma,> 100 µM
same,TGI,UACC-62 melanoma,> 100 µM
same,GI50,UO-31 renal,> 100 µM
same,TGI,UO-31 renal,> 100 µM
COCN1C(=O)[C@@H]2CCCN2C(=O)c2ccc([N+](=O)[O-])cc21,TGI,786-0 renal,> 100 µM
same,TGI,A498 renal,> 100 µM
same,TGI,A549 NSCLC,> 100 µM
same,TGI,ACHN renal,> 100 µM
same,TGI,BT-549 breast,> 100 µM
same,TGI,CAKI-1 renal,> 100 µM
same,TGI,CCRF-CEM leukemia,> 100 µM
same,TGI,COLO 205 colon,> 100 µM
same,TGI,DU-145 prostate,> 100 µM
same,TGI,EKVX NSCLC,> 100 µM
same,TGI,HCC-2998 colon,> 100 µM
same,TGI,HCT-116 colon,> 100 µM
same,TGI,HCT-15 colon,> 100 µM
same,TGI,HL-60(TB) leukemia,> 100 µM
same,TGI,HOP-62 NSCLC,> 100 µM
same,TGI,HOP-92 NSCLC,> 100 µM
same,TGI,HS 578T breast,> 100 µM
same,TGI,HT29 colon,> 100 µM
same,TGI,IGROV1 ovarian,> 100 µM
same,TGI,K-562 leukemia,> 100 µM
same,TGI,KM12 colon,> 100 µM
same,TGI,LOX IMVI melanoma,> 100 µM
same,TGI,M14 melanoma,> 100 µM
same,TGI,MCF7 breast,> 100 µM
same,TGI,MDA-MB-231 breast,> 100 µM
same,TGI,MDA-MB-435,> 100 µM
same,TGI,MOLT-4 leukemia,> 100 µM
same,TGI,NCI-H226 lung,> 100 µM
same,TGI,NCI-H23 lung,> 100 µM
same,TGI,NCI-H460 lung,> 100 µM
same,TGI,NCI-H522 lung,> 100 µM
same,TGI,NCI/ADR-RES ovarian,> 100 µM
same,TGI,OVCAR-3 ovarian,> 100 µM
same,TGI,OVCAR-4 ovarian,> 100 µM
same,TGI,OVCAR-5 ovarian,> 100 µM
same,TGI,OVCAR-8 ovarian,> 100 µM
same,TGI,PC-3 prostate,> 100 µM
same,TGI,RPMI-8226 leukemia,> 100 µM
same,TGI,RXF 393 renal,> 100 µM
same,TGI,SF-268 CNS,> 100 µM
same,TGI,SF-295 CNS,> 100 µM
same,TGI,SF-539 CNS,> 100 µM
same,TGI,SK-MEL-2 melanoma,> 100 µM
same,TGI,SK-MEL-28 melanoma,> 100 µM
same,TGI,SK-MEL-5 melanoma,> 100 µM
same,TGI,SK-OV-3 ovarian,> 100 µM
same,TGI,SN12C renal,> 100 µM
same,TGI,SNB-19 CNS,> 100 µM
same,TGI,SNB-75 CNS,> 100 µM
same,TGI,SR leukemia,> 100 µM
same,TGI,SW-620 colon,> 100 µM
same,TGI,T-47D breast,> 100 µM
same,TGI,TK-10 renal,> 100 µM
same,TGI,U251 CNS,> 100 µM
same,TGI,UACC-257 melanoma,> 100 µM
same,TGI,UACC-62 melanoma,> 100 µM
same,TGI,UO-31 renal,> 100 µM
